The values that follow come from patent US20070004803A1, “Compounds and methods for use in treating neoplasia and cancer based upon inhibitors of isoprenylcysteine methyltransferase” (Purdue Research Foundation, priority 2003, published 2007).

As usually defined, the IC50 is the concentration at which inhibition is half-maximal. What is called Ki is the equilibrium dissociation constant of an inhibitor or competing ligand from its target.

Experiment [1] addresses T1, Saccharomyces cerevisiae Icmt (Saccharomyces cerevisiae, UniProt P32584).
T1 construct: A 734 bp EagI-SacII fragment, which contained the gene STE14, was amplified from pSM187; made in house; host or cells: Saccharomyces cerevisiae strain CH2704 (plasmid pCHH10m3N-STE14 in the Ste14p-lacking strain SM1188); membrane fraction
T1 sequence (P32584 1-239): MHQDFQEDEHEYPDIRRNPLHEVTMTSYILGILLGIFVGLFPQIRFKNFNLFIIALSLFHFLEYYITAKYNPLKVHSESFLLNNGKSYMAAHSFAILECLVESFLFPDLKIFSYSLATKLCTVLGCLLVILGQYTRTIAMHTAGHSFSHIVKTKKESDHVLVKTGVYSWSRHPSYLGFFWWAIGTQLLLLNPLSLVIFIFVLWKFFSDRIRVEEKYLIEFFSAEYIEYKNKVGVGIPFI
In words: In vitro vapor diffusion methyltransferase assay, AFC analogues as substrates. It is filed as biochemical. Conditions: Relative velocity (compared to AFC) at 125 μM; substrate ability. As for the experimental part: Previous studies in this laboratory have focused on the isoprenoid substrate specificity of FTase. […] These isoprenoid moieties were chosen in part because the corresponding FPP analogues are alternative substrates for FTase, and can thus be readily incorporated into peptides and proteins. The assays were performed using overexpressed, reconstituted recombinant Saccharomyces cerevisiae Icmt.
(§1) Isolation of Membrane Fraction from Yeast Cells—Mid-log phase yeast cells (2.0-3.0 OD600/mL), grown in SC-URA, media, were harvested by centrifugation at 3500×g for 10 minutes at 4° C., washed with 10 mM NaN3, and resuspended in lysis buffer (0.3 M sorbitol, 10 mM Tris-HCl pH 7.5, 0.1 M NaCl, 5 mM MgCl2, 1% aprotinin, 10 μg/mL leupeptin, 10 μg/in L pepstatin A, 10 μg/mL chymostatin, 10 μg/mL bestatin, 1 mM dithiothreitol, and 2 mM AEBSF) to a final concentration of 800 OD600/mL. After a 15 min incubation on ice, the cells were frozen and thawed twice in liquid N2. The cells were then lysed by passing the mixture twice through a French press. The resultant mixture was centrifuged at 500×g to remove whole cells and other particulate. The supernatant was then treated with 50 U/mL micrococcal nuclease followed by centrifugation at 150,000×g in a Beckman L5 50B centrifuge (45 Ti rotor) for 90 minutes at 4° C., to pellet the membrane fraction. The pellet was resuspended in lysis buffer containing 10% glycerol, aliquoted, and stored at −80° C. Membrane protein concentration was determined using Coomassie Plus Protein Assay Reagent (Pierce Biotechnology) according to the manufacturers instructions, and compared to a BSA standard curve prepared by the same procedure. Protein samples were analyzed by immunoblot analysis and in vitro vapor diffusion methyltransferase assay as described elsewhere.
(§2) In vitro vapor diffusion methyltransferase assay—Methyltrasferase assays were performed in a total volume of 60 μL and a final Tris-HCl concentration of 100 mM, pH 7.5. All reactions contained 20 μM S-adenosyl-[^14C-methyl]-methionine (SAM) and 5 μg of membrane protein from the His-Ste14p overexpressing strain CH2704. Substrate curves were generated by varying the amount of compound in each reaction. […] The 60 μL reactions were incubated at 30° C. for 30 minutes. The reaction was stopped with the addition of 50 μL of 1M NaOH/1% SDS. 100 μL of this mixture is then spotted on folded filter paper (5.5 cm×1.5 cm) and lodged in the neck of a scintillation vial containing 10 mL of scintillation fluid. Hydroxide ion forms a tetrahedral intermediate with the newly formed ^14C-methyl ester on the methyl acceptor. This intermediate then eliminates ^14C-methanol, which diffuses into the scintillation fluid below. The filters were pulled out after 2-3 hours, the vials were shaken well and counted in a liquid scintillation analyzer.

The target in experiment [2] is T1, Saccharomyces cerevisiae Icmt. In words: In vitro vapor diffusion methyltransferase assay, inhibition of AFC methylation. Conditions: for Icmt inhibitory ability (in words): inhibition of AFC methylation; for IC50: inhibition curves in the presence of 33 μM AFC. The format is biochemical. As for the experimental part: Previous studies in this laboratory have focused on the isoprenoid substrate specificity of FTase. We have discovered analogues that are effective alternative substrates, and compounds that are potent inhibitors. […] In the initial study, six isoprenoid-modified analogues (2-7, Chart 1, below) of the minimal Icmt substrate AFC 1 were prepared and evaluated as substrates and as inhibitors of the enzyme. These isoprenoid moieties were chosen in part because the corresponding FPP analogues are alternative substrates for FTase, and can thus be readily incorporated into peptides and proteins. The assays were performed using overexpressed, reconstituted recombinant Saccharomyces cerevisiae Icmt.
as §1
as §2, with “reaction. Inhibition curves were generated by varying the amount of compound in each reaction while in the presence of 33 μM N-acetyl-S-farneslylcysteine (AFC).” for “reaction.”

As to `CC(=O)N[C@@H](CSCC=C(C)CCC=C(C)CCC=C(C)C)C(=O)O` [Compound 1, N-acetyl-S-farneslylcysteine, reference compound], in experiment [1], the Icmt krel worked out at 100.
Regarding `CCCCCCCCCC/C(C)=C/CSC[C@H](NC(C)=O)C(=O)O` [Compound 6], the Icmt krel in experiment [1] turned out to be 24.2.
For `CC(=O)N[C@@H](CSC/C=C(\CC=C(C)C)CCc1ccc(-c2ccccc2)cc1)C(=O)O` [Compound 14], the Icmt krel in experiment [1] is 0.70. The “Icmt inhibitory ability (in words)” value in experiment [2] is listed as “moderately effective inhibitor of Icmt”.
Molecule `CC(=O)N[C@@H](CSC/C=C(/C)CC/C=C(\C)CCC=C(C)C)C(=O)O` [Compound 4, N-Acetyl-S-(3,7,11-trimethyldodeca-2(Z),6(E),10-trien-1-yl)-L-cysteine] registered an Icmt krel in experiment [1] of 62.0.
For the molecule `CC(=O)N[C@@H](CSC/C=C(\C)CC/C=C(\CC=C(C)C)CC/C=C(\C)CCC=C(C)C)C(=O)O` [Compound 13, N-Acetyl-S-(7-(3-methylbut-2-enyl) 3,11,15-trimethylhexadeca-2Z,6E,10E,14-tetraen-1-yl)-L-cysteine], the Icmt krel in experiment [1] was 16.3. Also, the IC50 in experiment [2] amounted to 130 µM.
On to `CC(=O)N[C@@H](CSC/C=C(\C)CC/C=C(/C)CCC=C(C)C)C(=O)O` [Compound 5, N-Acetyl-S-(3,7,11-trimethyldodeca-2(E),6(Z),10-trien-1-yl)-L-cysteine], for which, in experiment [1], the Icmt krel was found to be 19.1.
In experiment [1], `C=CCC(=CCSC[C@H](NC(C)=O)C(=O)O)CCC=C(C)CCC=C(C)C` [Compound 8, N-Acetyl-S-(3-allyl-7,11-dimethyldodeca-2,6,10-triene-1-yl)-L-cysteine] showed an Icmt krel of 18.6.
In experiment [1], `CC(=O)N[C@@H](CSC/C=C(\C)CC/C=C(\CC=C(C)C)CCC=C(C)C)C(=O)O` [Compound 10, N-Acetyl-S-(7-(3-methylbut-2-enyl)-3,11-dimethyldodeca-2Z,6E,10-trien-1-yl) -L-cysteine] gave an Icmt krel of 35.0.
In experiment [1], `CC(=O)N[C@@H](CSC/C=C(\CC=C(C)C)CC/C=C(\C)CC/C=C(\C)CCC=C(C)C)C(=O)O` [Compound 12, N-Acetyl-S-(3-(3-methylbut-2-enyl) 7,11,15-trimethylhexadeca-2Z,6E,10E,14-tetraen-1-yl)-L-cysteine] came in with an Icmt krel of 50.0. Also, the IC50 in experiment [2] came to 130 µM.
The molecule `C=CCC/C(=C\CSC[C@H](NC(C)=O)C(=O)O)CC/C=C(\C)CCC=C(C)C` [Compound 9, N-Acetyl-S-(3-(but-3-enyl)-7,11-dimethyldodeca-2Z,6E,10-trien-1-yl)-L-cysteine] yielded an Icmt krel in experiment [1] of 35.4.
As for `CC(=O)N[C@@H](CSC/C=C(\CC=C(C)C)CC/C=C(\C)CCC=C(C)C)C(=O)O` [Compound 3, N-Acetyl-S-(3-(3-methylbut-2-enyl)-7,11-dimethyldodeca-2(Z),6(E),10-trien-1-yl)-L-cysteine], the Icmt krel in experiment [1] was determined as 5.9. Further, the affinity in experiment [2] (AFC(protein)-competitive inhibition of Icmt), expressed as Ki, was 21.3 µM. Also, the “Icmt inhibitory ability (in words)” value in experiment [2] was “low micromolar inhibitor of AFC methylation”. The mode of action result in experiment [2] (varying AFC at constant inhibitor concentration) is given as “AFC(protein)—competitive inhibitor of Icmt”.
